We go through 1 molecule from US4992369A, “Fermentation process for glycopeptide antibiotic” (Pfizer Inc., priority 1986, dated 1991).

In this test the test system is rumen fluid. Kind of test: In vitro rumen technique: propionic acid production in rumen fluid. In kind it is cell-based. The note with it: 10 micrograms per milliliter; rumen fluid from fistulated cow, 39° C., about 16 hours. On the procedure:
The value of animal feeds has generally been determined directly by feeding the animal. British Patent Specification No. 1,197,826 details an in vitro rumen technique whereby the changes occurring in feeds brought about by microorganisms are measured more readily and with great accuracy in the evaluation of animal feeds. This technique involves the use of an apparatus in which the digestive processes of the animals are conducted and studied in vitro. The animal feeds, rumen inoculum and various growth promotants are introduced into and withdrawn from a laboratory unit under carefully controlled conditions and the changes taken place are studied critically and progressively during the consumption of the feed by the microorganisms. […] The change in propionic acid content is expressed as percent of the propionic acid content found in the control rumen fluid. Long term in vivo feeding studies are used to show a reliable correlation between propionic acid increase in the rumen fluid and improved animal performance. […]
After incubation, 5 ml. of the sample is mixed with 1 ml. of 25% metaphosphoric acid. […] Samples are then analyzed by gas-liquid chromatography by the method of D. W. Kellog, J. Dairy Science, 52, 1690, 1969. Peak heights for acetic, propionic and butyric acids are determined for samples from untreated and treated incubation flasks.

Regarding `CC[C@@H](C(=O)[C@@H](C)[C@@H](O)[C@H](C)[C@@H]1O[C@@H]([C@@H](CC)C(=O)O)CC[C@@H]1C)[C@H]1O[C@]2(C=C[C@@H](O)[C@]3(CC[C@@](C)([C@H]4CC[C@](O)(CC)[C@H](C)O4)O3)O2)[C@H](C)C[C@@H]1C` [salinomycin], the “increase in the production of propionic acid over control” value is given as approximately 46%.
